Results reported in paper PMC7016953 (Cells, 2020).

Tests used:
hTRPC6-YFP = test system: T1, hTRPC6-YFP; experiment: Fluo-4 Ca2+ influx assay in HEK293 cells stably expressing TRPC6; format: cell-based, human; conditions: for effect on TRPC6: fluo-4 concentration response analysis
T1 construct: expressed in transfected cells

hTRPC7-YFP = test system: T2, hTRPC7-YFP; experiment: Fluo-4 Ca2+ influx assay in HEK293 cells stably expressing TRPC7; format: cell-based, human; conditions: fluo-4 concentration response analysis
T2 construct: expressed in transfected cells

hTRPM2 = test system: T3, hTRPM2; experiment: Selectivity profiling, fluo-4 [Ca2+]i response, TRPM2; format: cell-based, human; conditions: 100 µM
T3 construct: expressed in transfected cells
Method: (§1) Human embryonic kidney 293 (HEK293) cells were stably transfected with expression plasmids that encode hTRPC3-YFP, hTRPC6-YFP, hTRPC7-YFP, mTRPC4ß-YFP, rTRPV1-CFP, rTRPV2-YFP, rTRPV3-YFP, mTRPV4-YFP, or hTRPM2 as previously described. Cell lines were cultured in Earle’s minimum essential medium (MEM; Sigma, Munich, Germany), supplemented with 10% fetal calf serum (Gibco Thermo Fisher Scientific, Darmstadt, Germany), 2 mM L-glutamine, and required concentrations of geneticin in a range of 0.4–1 mg/mL. A HEK293mTRPC5-YFP cell line was maintained and induced as described before. […] For electrophysiological and single cell [Ca^2+]i imaging experiments, PC12 cells were plated onto 25 mm poly-L-lysine-coated glass coverslips and measured 24–48 h after seeding. […]
(§2) The primary compound screen and the generation of concentration response curves in HEK293 cells or in PC12 cells were performed by using a custom-made fluorescence plate imager built into a robotic liquid handling station equipped with a 96-tip multichannel head (Freedom Evo 150, Tecan, Männedorf, Switzerland) as described previously. […] Plates were mounted on the imager, and fluorescence signals were recorded with a cooled Zyla 5.5 camera (Andor, Belfast, UK) through a 515 nm long pass filter. […] When inhibitory potencies were evaluated, a second pipetting step with the respective reference agonist was performed. […]

mTRPM3α2 = experiment: Selectivity profiling, fluo-4 [Ca2+]i response, TRPM3; format: cell-based, mouse; conditions: 100 µM
Method: as §1, §2

rTRPV1-CFP = test system: T4, rTRPV1-CFP; experiment: Selectivity profiling, fluo-4 [Ca2+]i response, TRPV1; format: cell-based, rat; conditions: 100 µM
T4 construct: expressed in transfected cells
Method: as §1, §2

rTRPV2-YFP = test system: T5, rTRPV2-YFP; experiment: Selectivity profiling, fluo-4 [Ca2+]i response, TRPV2; format: cell-based, rat
T5 construct: expressed in transfected cells
Method: as §1, §2

rTRPV3-YFP = test system: T6, rTRPV3-YFP; experiment: Selectivity profiling, fluo-4 [Ca2+]i response, TRPV3; format: cell-based, rat; conditions: 100 µM
T6 construct: expressed in transfected cells
Method: as §1, §2

mouse TRPC3 ortholog = test system: T7, mouse TRPC3 ortholog; experiment: Single-cell [Ca2+]i analysis, fura-2-loaded HEK293 cells transiently overexpressing mouse TRPC3; format: cell-based; conditions: 50 µM, mean and S.D., n = 215 single cells; basal 311 ± 134 nM
T7 construct: expressed in transfected cells; host or cells: HEK293, transient
Method: (§3) The microfluorometric single-cell [Ca^2+]i analysis was performed on an inverted epifluorescence microscope (Carl Zeiss, Jena, Germany) and calibrated as described. Cells were grown on 25 mm coverslips and loaded with 4 µM fura-2/AM (AAT Bioquest, Sunnyvale, CA, U.S.A.) in HBS containing 0.2% BSA for 30 min at 37 °C. After gently rinsing the coverslips with HBS, coverslips were mounted in a bath chamber and superfused with HBS containing 0.035% BSA.

[1] = test system: PC12 cells (native TRPC3 channel complexes); experiment: [Ca2+]i analysis in fura-2-loaded PC12 cells; format: cell-based, rat
Method: Human embryonic kidney 293 (HEK293) cells were stably transfected with expression plasmids that encode hTRPC3-YFP, hTRPC6-YFP, hTRPC7-YFP, mTRPC4ß-YFP, rTRPV1-CFP, rTRPV2-YFP, rTRPV3-YFP, mTRPV4-YFP, or hTRPM2 as previously described. Cell lines were cultured in Earle’s minimum essential medium (MEM; Sigma, Munich, Germany), supplemented with 10% fetal calf serum (Gibco Thermo Fisher Scientific, Darmstadt, Germany), 2 mM L-glutamine, and required concentrations of geneticin in a range of 0.4–1 mg/mL. A HEK293mTRPC5-YFP cell line was maintained and induced as described before. The HEK293mTRPM3α2 cells (expressing the Ca^2+-permeable main variant of mouse TRPM3) were kindly provided by Johannes Oberwinkler (Marburg, Germany), the HEK293hTRPA1 cells that constitutively overexpress the human TRPA1 were from Dr. Natalie Tigue and Dr. Steve Moore (GlaxoSmithKline, Harlow, UK). With the exception of mTRPC5-YFP, all cell lines constitutively overexpress the respective TRP channel under the control of a cytomegalovirus (CMV) promoter. A HEK cell line stably expressing the human protein kinase C (PKC) ε C-terminally tagged with YFP [13] was generated and maintained in the same medium as HEKTRPC3-YFP cells. PC12 cells were cultured in RPMI-1640 (Sigma, Munich, Germany) with 10% fetal calf serum, 2 mM L-glutamine, 100 U/mL penicillin, and 0.1 mg/mL streptomycin. For electrophysiological and single cell [Ca^2+]i imaging experiments, PC12 cells were plated onto 25 mm poly-L-lysine-coated glass coverslips and measured 24–48 h after seeding. All cells were maintained at 37 °C in a 5% CO2-aerated, humidified atmosphere.
as §3
Figure 7 Expression of TRPC3 and functional responses to TRPC activators in PC12 rat pheochromocytoma cells. (A) Immunofluorescence analysis of TRPC3 (green channel) and tyrosine hydroxylase (TH; red channel) expression in PC12 cells. Nuclei were counterstained with DAPI (blue channel). Bars: 20 µm scale. Time course of the [Ca^2+]i (B) and averaged basal and peak [Ca^2+]i values (C) were recorded by microfluorometric analysis in fura-2-loaded PC12 cells grown on glass coverslips. […] Data represent averages (B) or means and S.D. (C) of 6–12 imaging experiments for each compound. Significant increases compared to the respective basal values are indicated (#: p < 0.05; Student´s t-test for paired data).

With `C[C@@H]1CC[C@H]2[C@@H](C)C(=O)O[C@@H]3O[C@@]4(C)CC[C@@H]1[C@]32OO4` [artemisinin] the “effect on TRPC6” value (hTRPC6-YFP) was “marked preference to activate TRPC3, but not the closely related TRPC6 channel”, the “effect on TRPC6” value (hTRPC6-YFP; listed as Artemisinin) was “rather inhibits TRPC6” and the “signal in counterscreen with TRPC6-expressing cells” value (hTRPC6-YFP; primary screen, 20 µM) was “no signals”. The “effect on TRPC7” value (hTRPC7-YFP) was “weakly activated”, the “[Ca2+]i response, TRPM2” value (hTRPM2) was “none of the cell lines responded” and the “[Ca2+]i response, TRPM3” value (mTRPM3α2) was “none of the cell lines responded”. For the same compound, the “[Ca2+]i response, TRPV1” value (rTRPV1-CFP) was “none of the cell lines responded”, the “[Ca2+]i response, TRPV2” value (rTRPV2-YFP; 100 µM) was “none of the cell lines responded” and the “response of TRPV2-expressing cells to 2-APB after artemisinin” value (rTRPV2-YFP; 100 µM artemisinin, 2-APB final concentration 300 µM) was “slightly increased response”. For the same compound, the “[Ca2+]i response, TRPV3” value (rTRPV3-YFP) was “none of the cell lines responded”, the “[Ca2+]i reached after stimulation” value (mouse TRPC3 ortholog) was 1140 ± 635 nM and the “[Ca2+]i in fura 2-loaded PC12 cells” value ([1]; artemisinin 50 or 100 µM, 6–12 experiments for each compound) was “significant increases in [Ca^2+]i”. For the same compound, the “response to artemisinin after neuronal growth factor treatment of PC12 cells” value ([1]; neuronal growth factor treatment) was “lower response”.
